Reference: patent US7615533B2, “TPO peptide compounds for treatment of anemia” (Janssen Pharmaceutica N.V., priority 2004, dated 2009)
Non-standard residues stand in square brackets, D forms with d. No end group written: not given here. 2Nal = N[C@@H](Cc1ccc2ccccc2c1)C(=O)O; Sar = CNCC(=O)O

Assays:
carboplatin treated mice [1] = experiment: Example 1: increasing doses one day after carboplatin, anemia in mice; assay type: in vivo, BALB/c mouse
Method: (§1) The effects of PEGylated TPO Compound No. 1 on mice treated with carboplatin were observed. For all examples herein, a 10 mg/ml stock solution of PEGylated TPO Compound No. 1 was prepared in sterile saline. For mixing, the preparation was placed on a gyratory shaker for 15 mm. at 200 rpm. This method was used to dissolve PEGylated TPO Compound No. 1 without foaming. The stock was filtered using a GV Millex (0.22 μm) filter. Dosing solutions were then prepared from this stock using sterile saline. The stock and dosing solutions were prepared fresh on the day of use.
The effect of PEGylated TPO Compound No. 1 on the duration and severity of anemia following treatment of mice with carboplatin as determined by changes in hemoglobin levels, red blood cell count and hematocrit, was observed. For this study, increasing amounts of PEGylated TPO Compound No. 1 were administered to mice one day following a carboplatin dose to characterize a possible dose-dependent effect on various red blood cell parameters.
The groups of mice were treated with either carboplatin or vehicle (Phosphate Buffered Saline, PBS) by intraperitoneal administration on Days −2 and −1 as delineated below. The optimal dose of carboplatin used to induce thrombocytopenia in the BALB/c mouse strain was previously determined to be a fractionated total dose of 120 mg/kg given as two consecutive daily injections (i.e., 2×60 mg/kg). One day following the second dose of carboplatin, groups of mice were treated with PEGylated TPO Compound No. 1 or vehicle (sterile saline, SS, preservative-free 0.90% sodium chloride) by IV (bolus) injection as delineated in Table 1. The dose was administered on a per-weight basis (100 μl/10 g body weight).
(§2) On Days 5, 7, 9 and 11, five mice in each test group were weighed and then euthanised using CO2-asphyxiation and exsanguinations via cardiac puncture. The blood samples were transferred to separate EDTA (lavender-top) microcontainers for hematologic evaluation. Groups of control mice (5) were processed on Days 5 and 11. The data are presented graphically as group means +SEM.

[2] = biological target: T1, human TPO receptor, c-mpl (hTPOr) (Homo sapiens, UniProt P40238); experiment: Example 7: Baf/3 hTPOr fos/lux luciferase reporter assay; assay type: cell-based
T1 construct: expressed in transfected cells
T1 sequence (P40238 26-635): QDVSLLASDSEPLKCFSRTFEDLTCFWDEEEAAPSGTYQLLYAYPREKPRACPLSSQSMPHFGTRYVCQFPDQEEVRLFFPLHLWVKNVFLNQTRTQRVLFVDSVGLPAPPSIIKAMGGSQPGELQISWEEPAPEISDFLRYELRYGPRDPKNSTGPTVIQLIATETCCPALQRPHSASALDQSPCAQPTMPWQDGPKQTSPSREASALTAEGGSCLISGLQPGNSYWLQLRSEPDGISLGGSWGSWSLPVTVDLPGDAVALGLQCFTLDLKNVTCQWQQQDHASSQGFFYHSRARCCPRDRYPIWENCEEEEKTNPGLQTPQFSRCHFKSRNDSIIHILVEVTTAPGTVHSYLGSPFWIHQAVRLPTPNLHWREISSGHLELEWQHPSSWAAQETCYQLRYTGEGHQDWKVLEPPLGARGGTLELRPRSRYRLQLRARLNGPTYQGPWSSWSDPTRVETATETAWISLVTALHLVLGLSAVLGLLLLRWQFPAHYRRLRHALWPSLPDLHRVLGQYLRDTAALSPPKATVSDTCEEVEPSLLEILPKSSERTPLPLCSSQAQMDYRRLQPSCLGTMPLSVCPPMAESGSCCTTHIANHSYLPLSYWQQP
Source text: The activity of the peptide compounds can be determined using standard relative luminescent units assay techniques. The assay employs, e.g., murine cells engineered to stably express the human TPO receptor and a luciferase reporter construct driven by the fos promoter. The assay may be performed as follows: Serum deprived Baf/3 hTPOr fos/lux cells expressing the human TPO receptor, c-mpl (hTPOr), and a luciferase reporter construct are exposed to increasing concentrations of either rhTPO or peptide compound for approximately 18 hours. Cells are then incubated in a medium containing a luciferase substrate and the luminescence of the cells is measured using a luminometer.

carboplatin treated mice [3] = experiment: Example 3: dosing at various times after carboplatin, anemia in mice; assay type: in vivo, BALB/c mouse
Method: as §1
The effect of PEGylated TPO Compound No. 1 on the duration and severity of anemia following dosing regimens in which PEGylated TPO Compound No. 1 is administered at various times following the carboplatin treatment was observed. For this study, an amount of PEGylated TPO Compound No. 1 was administered to mice, one (1) hour, one (1) day or four (4) days following a carboplatin dose.
The groups of mice were treated with either carboplatin or vehicle (Phosphate Buffered Saline, PBS) by ip administration on Days −1 and 0 as delineated below. The optimal dose of carboplatin used to induce thrombocytopenia in the BALB/c mouse strain was previously determined to be a fractionated total dose of 120 mg/kg given as two consecutive daily injections (i.e., 2×60 mg/kg). One hour (Day 0), one day (Day 1) or four days (Day 4) following the second dose of carboplatin, groups of mice were treated with PEGylated TPO Compound No. 1 (300 μg/kg) or vehicle (sterile saline, SS, preservative-free 0.9% sodium chloride) by IV (bolus) injection as delineated in Table 3. The dose was administered on a per-weight basis (100 μl/10 g body weight).
as §2, with “6, 8, 10 & 12,” for “5, 7, 9 and 11,”, “hematological” for “hematologic”, “6 & 12.” for “5 and 11.”

Compound: Methoxypolyethyleneglycol20000-propionyl-L-Isoleucyl-L-Glutamyl-Glycyl-L-Prolyl-L-Threonyl-L-Leucyl-L-Arginyl-L-Glutaminyl-L-2-Naphthylalanyl-L-Leucyl-L-Alanyl-L-Alanyl-L-Arginyl-Sarcosyl-Ne-(methoxypolyethyleneglycol20000-propionyl-L-Isoleucyl-L-Glutamyl-Glycyl-L-Prolyl-L-Threonyl-L-Leucyl-L-Arginyl-L-Glutaminyl-L-2-Naphthylalanyl-L-Leucyl-L-Alanyl-L-Alanyl-L-Arginyl-Sarcosyl-)-Lysinamide ({methoxypolyethyleneglycol20000‑propionyl}-IEGPTLRQ[2Nal]LAAR[Sar]K[Sar]RAAL[2Nal]QRLTPGEI; also: dimer: positions 16-29 are the second 14-mer written in reverse, its Sar C-terminus joined to the K15 epsilon-amine, K15 is C-terminal lysinamide (NH2), methoxypolyethyleneglycol20000-propionyl also on Ile29 N-terminus) [PEGylated TPO Compound No. 1]
- carboplatin-associated decreases in RBC count and hematocrit (carboplatin treated mice [1]; 300, 1000, 3000 μg/kg iv one day after carboplatin, no statistical evaluation): inhibited
- carboplatin-induced decrease in hemoglobin levels (carboplatin treated mice [1]; all doses (300, 1000, 3000 μg/kg iv, one day after carboplatin 2×60 mg/kg ip), by Day 11): inhibited
- body weight after carboplatin (carboplatin treated mice [1]; all doses tested, 11-Day study period): enhanced the recovery of the lost body weight
- altered appearance and behavior (hunched, flaccid, soiled anogenital areas) (carboplatin treated mice [1]; appeared to be dose-dependent): decreased the onset, frequency and severity of these signs
- activation of TPO-R compared with TPO ([2]; at the same concentration as TPO): stronger activation
- activation of Baf/3 cells recombinantly expressing human TPO-R ([2]; increasing concentrations): dose dependent
- carboplatin-induced decreases in hemoglobin levels, RBC counts and hematocrits (carboplatin treated mice [3]; 300 μg/kg iv on Day 0 (1 hour after carboplatin) and on Day 1): prevented
- weight loss associated with carboplatin treatment (carboplatin treated mice [3]; 300 μg/kg iv on Day 0, Day 1 or Day 4, no statistical analysis): did not appear to affect the weight loss
- carboplatin-induced changes in erythrocyte parameters (carboplatin treated mice [3]; 300 μg/kg iv on Day 4): failed to affect carboplatin-induced changes
- onset, frequency or severity of signs (hunched, flaccid) (carboplatin treated mice [3]; 300 μg/kg iv, no detailed analysis): did not appear to have a dramatic effect
- carboplatin-induced anemia (carboplatin treated mice [3]; dosed within 24 hours of chemotherapy): Prevention of carboplatin-induced anemia is observed

Compound: N.N.O=C([O-])C1(C(=O)[O-])CCC1.[Pt+2] [carboplatin, reference compound]
- decrease in hemoglobin levels (carboplatin treated mice [1]; carboplatin alone 2×60 mg/kg ip, by Day 11): ~20%
- decreases in hemoglobin levels, RBC counts and hematocrits (carboplatin treated mice [3]; carboplatin alone 2×60 mg/kg ip, surviving mice (2 mice) by Day 12 compared to control groups): approx. 47%
